Test systems include SF-268 CNS; RPMI-8226 leukemia; OVCAR-5 ovarian; HS 578T breast; K-562 leukemia; M14 melanoma; HOP-62 NSCLC; NCI-H226 lung.
Common to all, as to test: NCI tumour cell line growth inhibition, 48 h

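Where inhibition never reached the appropriate level, the endpoint shown equals the highest concentration tested. Otherwise, values were interpolated linearly from a five-concentration, 48-hour dose response in 96-well plates. GI50 is the concentration that inhibits growth by half. At the TGI there is no net growth.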 Bounds are passed on as bounds.

Consider `N#Cc1c(-c2nc3ccccc3s2)c(=O)oc2cc(O)ccc12`, for which the TGI with SF-268 CNS, with RPMI-8226 leukemia, in the test on OVCAR-5 ovarian, in the test with HS 578T breast, in the test on K-562 leukemia and in the test on M14 melanoma was more than 100 µM each time. Further, the TGI was 57.3 µM with HOP-62 NSCLC and more than 100 µM with NCI-H226 lung.
On to `C=C1C(=O)O[C@H]2[C@H]1CC/C(COC(=O)c1cc3cc(F)ccc3[nH]1)=C\CC[C@@]1(C)O[C@@H]21`, for which the GI50 is 1.62 µM with SF-268 CNS; 2 µM in the test with RPMI-8226 leukemia; 1.77 µM with OVCAR-5 ovarian; 2.95 µM in the test with HS 578T breast; 2.24 µM in the test with K-562 leukemia; 1.89 µM in the test on M14 melanoma. The values for the GI50 with HOP-62 NSCLC and in the test with NCI-H226 lung were 2.92 µM and 1.76 µM, respectively. In addition, the TGI with SF-268 CNS amounted to 3.3 µM; with RPMI-8226 leukemia it was 7.09 µM; with OVCAR-5 ovarian, 4.09 µM; in the test on HS 578T breast, 18.8 µM; in the test with K-562 leukemia it was 12.1 µM; in the test with M14 melanoma, 4.11 µM. Also, the TGI with HOP-62 NSCLC amounted to 14.9 µM; in the test on NCI-H226 lung it was 3.52 µM.
Turning to `CNC(=O)c1cc(OC2CCC(NC(=O)Nc3ccc(Cl)c(C(F)(F)F)c3)CC2)ccn1` (stereo not drawn), the GI50 with SF-268 CNS is 13.7 µM; in the test on RPMI-8226 leukemia, 2.86 µM; in the test with OVCAR-5 ovarian, 12.5 µM; with HS 578T breast it was 11.6 µM; in the test with K-562 leukemia, 3.66 µM; in the test with M14 melanoma it was 5.47 µM. Also, the values for the GI50 in the test on HOP-62 NSCLC and in the test on NCI-H226 lung were 15 µM and 9.99 µM, respectively. For the same molecule, the TGI with SF-268 CNS was 52 µM; in the test on RPMI-8226 leukemia it was 14.8 µM; with OVCAR-5 ovarian, 31.1 µM; with HS 578T breast, 63.1 µM; with K-562 leukemia it was 17.3 µM; with M14 melanoma, 20.6 µM. The TGI in the test on HOP-62 NSCLC was 31.4 µM; with NCI-H226 lung, 25.6 µM.
For the molecule `Cc1ccc(CNc2c3ccccc3nc3ccccc23)cc1`, the GI50 with SF-268 CNS is 2.98 µM; with RPMI-8226 leukemia, 1.48 µM; in the test on OVCAR-5 ovarian, 1.99 µM; with HS 578T breast, 2.46 µM; in the test on K-562 leukemia, 1.97 µM; in the test on M14 melanoma, 1.53 µM. For the same molecule, the GI50 in the test on HOP-62 NSCLC is 3.58 µM; in the test on NCI-H226 lung it was 1.87 µM. The TGI with SF-268 CNS was 11.3 µM; in the test on RPMI-8226 leukemia, 3.86 µM; in the test with OVCAR-5 ovarian it was 8.08 µM; in the test with HS 578T breast, 6.6 µM; with K-562 leukemia it was 13.1 µM; with M14 melanoma, 3.24 µM. Also, the results for the TGI in the test with HOP-62 NSCLC and in the test with NCI-H226 lung were 16.8 µM and 5.12 µM, respectively.
Take `COc1ccc2c(c1)[nH]c(=O)c1c3cc(C)c(C)cc3cn21`: the GI50 is less than 0.01 µM in the test with SF-268 CNS; less than 0.01 µM with RPMI-8226 leukemia; 0.0561 µM in the test with OVCAR-5 ovarian; less than 0.01 µM in the test with HS 578T breast; less than 0.01 µM in the test with K-562 leukemia; less than 0.01 µM in the test on M14 melanoma. The GI50 in the test on HOP-62 NSCLC is less than 0.0185 µM; with NCI-H226 lung, 0.389 µM. The TGI with SF-268 CNS turned out to be 1.45 µM; with RPMI-8226 leukemia it was 0.0656 µM; in the test on OVCAR-5 ovarian it was 2.92 µM; with K-562 leukemia, 0.14 µM; in the test with M14 melanoma, 1.2 µM; with HOP-62 NSCLC it was 1.9 µM. The TGI in the test on NCI-H226 lung turned out to be 21.7 µM.
In the case of `COc1ccc2nc(N/N=C(\C)c3ccccn3)cc(C)c2c1`, the GI50 with SF-268 CNS was 0.228 µM; in the test on RPMI-8226 leukemia, 0.369 µM; in the test on OVCAR-5 ovarian it was 0.571 µM; in the test with HS 578T breast it was 1.76 µM; with K-562 leukemia, 0.303 µM; with M14 melanoma, 0.212 µM. The GI50 with HOP-62 NSCLC was 0.259 µM; in the test on NCI-H226 lung, 0.222 µM. Further, the TGI with SF-268 CNS was found to be 1.46 µM; with RPMI-8226 leukemia it was 1.36 µM; with OVCAR-5 ovarian, 3.68 µM; with HS 578T breast it was 9.39 µM; in the test on K-562 leukemia, 1.3 µM; with M14 melanoma, 1.13 µM. Besides, the TGI in the test on HOP-62 NSCLC turned out to be 1.11 µM; in the test with NCI-H226 lung it was 1 µM.
For `ClCc1cccc(Cn2cnc3c(Cl)ncnc32)c1`, the GI50 in the test on SF-268 CNS is 3.53 µM; with RPMI-8226 leukemia it was 3.82 µM; in the test on OVCAR-5 ovarian, 2.08 µM; in the test on HS 578T breast it was 3.48 µM; in the test on K-562 leukemia, 3.56 µM; with M14 melanoma, 1.66 µM. In addition, the GI50 in the test with HOP-62 NSCLC was 2.6 µM; with NCI-H226 lung, 2.15 µM. Also, the TGI with SF-268 CNS amounted to 15.3 µM; with RPMI-8226 leukemia it was 16.1 µM; in the test on OVCAR-5 ovarian it was 4.32 µM; in the test on HS 578T breast, 11.5 µM; with K-562 leukemia it was 15.2 µM; in the test on M14 melanoma, 3.31 µM. The TGI in the test on HOP-62 NSCLC amounted to 5.11 µM; in the test on NCI-H226 lung it was 4.38 µM.
For the molecule `O=[N+]([O-])C1C(c2ccccc2)C12c1ccccc1-c1ccccc12` (stereo not drawn), the GI50 was 2.3 µM with SF-268 CNS; 0.322 µM in the test on RPMI-8226 leukemia; 4.65 µM with OVCAR-5 ovarian; 2.28 µM in the test with HS 578T breast; 0.452 µM in the test with K-562 leukemia; 0.789 µM in the test with M14 melanoma. Also, the values for the GI50 in the test on HOP-62 NSCLC and in the test on NCI-H226 lung were 0.573 µM and 2.05 µM, respectively. Also, the TGI in the test with SF-268 CNS is 28 µM; with RPMI-8226 leukemia, 1.51 µM; with OVCAR-5 ovarian it was more than 51.8 µM; in the test with HS 578T breast, more than 100 µM; in the test on K-562 leukemia, more than 65.9 µM; in the test with M14 melanoma it was 23.7 µM. Moreover, the TGI came out at 17.6 µM with HOP-62 NSCLC and 14.5 µM with NCI-H226 lung.
On to `Nc1nc(SCc2ccccn2)c2ncn(C3CCCC3)c2n1`, for which the TGI in the test with SF-268 CNS is more than 100 µM; in the test on RPMI-8226 leukemia it was more than 100 µM; in the test on OVCAR-5 ovarian, more than 100 µM; in the test with HS 578T breast it was 88.5 µM; in the test on K-562 leukemia, more than 100 µM; with M14 melanoma, more than 100 µM. In addition, the TGI in the test on HOP-62 NSCLC and in the test on NCI-H226 lung was more than 100 µM throughout.
In the case of `CN(C)c1cccc2c(S(=O)(=O)N[C@H]3CC[C@H]4[C@@H]5CCc6cc(O)ccc6[C@H]5CC[C@]34C)cccc12`, the GI50 in the test with SF-268 CNS is 3.03 µM; in the test on RPMI-8226 leukemia, 2.32 µM; with OVCAR-5 ovarian, 3.09 µM; in the test on HS 578T breast, 2.86 µM; in the test with K-562 leukemia, 1.71 µM; in the test on M14 melanoma, 3.7 µM. Besides, the GI50 is 3.97 µM in the test on HOP-62 NSCLC and 3.02 µM in the test with NCI-H226 lung. In addition, the TGI in the test on SF-268 CNS was 15 µM; in the test on RPMI-8226 leukemia, 7.8 µM; in the test with OVCAR-5 ovarian, 13.2 µM; with HS 578T breast, 11.3 µM; with K-562 leukemia, more than 100 µM; in the test with M14 melanoma, 18.3 µM. Besides, the TGI with HOP-62 NSCLC turned out to be 13.9 µM; in the test with NCI-H226 lung it was 11.2 µM.

For the origin of these results see PubChem BioAssay (NCI).
